The results in this text go back to patent publication US8269017B2, “Compounds for the treatment of proliferative disorders” (Synta Pharmaceuticals Corporation, priority 2005, dated 2012).

One assay concerns SB cells. In words: Induction of apoptosis in SB cells (Annexin V/PI, FACS). Format: cell-based. Conditions: 24 h; for % Apoptotic Cells Gated: 1 μM; for cytotoxicity at 1 µM: read-out: % Dead Cells Gated; for viability at 1 µM: read-out: % Live Cells Gated. As for the experimental part: SB cells (2×10^5 cells/mL) were cultured in 12-well plates (2 mL/well) and were left untreated (negative control), treated with Taxol (positive control), or treated with a compound of the invention for 24 h at 37° C. After treatment, the cells were washed one time with 1×PBS and stained with FITC labeled anti-Annexin V and PI (10 μg/ml) for 15 min at room temperature. The cells were analyzed by FACSCalibur (Becton Dickinson).

The subject of a further assay is MDA-435. In words: Cytotoxicity in MDA-435 tumor cells (Cell Counting Kit 8). Format: cell-based. Conditions: Homo sapiens, MDA435, MDA-435 cells, 70 h. As for the experimental part: Tumor cell line, MDA-435, was seeded in 96-well plates at 1×10^4 cells/well in DMEM medium and treated with compounds at different concentrations. Taxol was used as a positive control. The cells were incubated at 37° C. for 70 h. Viability of the cells was measured with Cell Counting Kit 8 (Dojindo, Cat #CK04). IC50 of the compounds was determined by Five-Parameter Logistic equation.
(Tetrazolium assays rely on reduction of a dye to a coloured formazan, in cell work by metabolically active cells.)

The test system of the next assay is MDA-435 cells. Put plainly: Cell cycle analysis in MDA-435 cells. Format: cell-based, human. Conditions: 20 h, Taxol 30 nM, Comp. 1 100 nM, Comp. 2 500 nM, Comp. 3 10 nM, Comp. 6 800 mM (so in the source), Comp. 46 50 nM. The method, then: MDA-435 cells were cultured in 6-well plates at 1×10^6 cells/well and were untreated (negative control), treated with Taxol (positive control), or treated with a compound of the invention at 37° C. for 20 h. The cells were detached with 1× trypsin and washed one time with PBS. Cycle TEST PLUS kit (BD PharMingen, Cat #340242) was used to stain the cells. Cell cycle was analyzed with FACScomp program (BS PharMingen).

Another assay relates to MES-SA (uterine sarcoma). Put plainly: In vitro cytotoxicity, MTS assay, MES-SA. Format: cell-based, human. Conditions: MES-SA (Uterine Carcinoma). The method, then:
(§1) The in vitro cytotoxicity of the compounds of the invention was determined in the following human cell lines: HL-60 (T-cell leukemia), MDA-435 and MCF-7 (human breast carcinoma), NCI-H460 and H29 (colon carcinoma), DU145 (prostate carcinoma), and MES-SA and MES-SA/DX5 (uterine sarcoma). MES-SA is a model of uterine sarcoma, and the cell are sensitive to a number of chemotherapeutic agents including doxorubicin, dactinomycin, mitomycin C, taxol and bleomycin, but resistant to vinblastine and cisplatin. MES-SA/Dx5 was established in the presence of increasing concentrations of doxorubicin. […] All cells were purchased from ATCC.
(§2) The cell lines were maintained in RPMI1640 (GIBCO) supplemented with 10% FCS, 100 units/mL penicillin, 100 ug/ml streptomycin, and 2 mM L-glutamine. Cells were split every third day and diluted to a concentration of 2×10^5 cells/mL one day before the experiment was performed. All experiments were performed on exponentially growing cell cultures. Cell densities were 2.5×10^4 cells/mL in all experiments.
(§3) Compounds of the invention were prepared by dissolving the compound at a concentration of 10 mM in 100% DMSO. Final concentrations 10, 1, 0.1, 0.01 and 0.001 μM were obtained by diluting the stock solution directly into the tissue culture medium.

The subject of assay [1] is MES-SA/DX5 (uterine sarcoma, MDR-1). Put plainly: cells. The assay is classed as cell-based. To be noted: MES/DX5 (MDR-1), MTS assay. The method, then: as §1, §2, §3
The subject of the next assay is HL-60 (T-cell leukemia). In words: In vitro cytotoxicity, MTS assay, HL-60. The assay is classed as cell-based, human. As for the experimental part: as §1, §2, §3
Assay [2] has as its system microtubules of CV-1 cells. In words: Microtubule disruption in CV-1 cells resistant to colchicine and vincristine. The assay is classed as cell-based, Africa green monkey. To be noted: 500 nM. From the text: The effects of compounds of the invention on microtubules were studied in CV-1 cells. The microtubules of CV-1 cells are known to be resistant to the depolymerizing effects of colchicine and vincristine. […] Cells were then fixed and stained to examine microtubule structure.

The mark [3] stands for this setting: Homo sapiens, 72 hours, read-out: IC50.
The mark [4] stands for this setting: Homo sapiens, HL-60, HL60 (Leukemia), 72 hours, read-out: IC50.
Setting [5] is: Homo sapiens, HL-60, 72 h, HL60 (Leukemia).

Structures can show the parent of a compound that is named as a salt. Where two headings read alike, the source gives them in different places. Bounds are passed on as bounds.

Consider `CCc1cc(-c2oncc2-c2ccc3ccccc3c2)c(O)cc1OC` [Compound 2, 4-(Naphthalen-2-yl)-5-(2-hydroxy-4-methoxy-5-ethyl-phenyl)-isoxazole], for which, in the assay with SB cells, the “% Apoptotic Cells Gated” value amounted to 22.73%, the cytotoxicity at 1 µM is 22.7% and the viability at 1 µM is 45.7%. Moreover, 79 nM corresponded to half-maximal inhibition in the assay on MDA-435 (IC50). In addition, in the assay with MDA-435 cells, the “Apoptotic Population (%)” value amounted to 11.17%, the “G0/G1 Phase (%)” value is on record as 21.25%, the “G2/M Phase (%)” value is 30.53% and the “S Phase (%)” value was 37.67%.
For the compound `CCc1cc(-c2oncc2-c2ccc(OC)cc2)c(O)cc1OC` [Compound 44, 4-(4-Methoxy-phenyl)-5-(2-hydroxy-4-methoxy-5-ethyl-phenyl)-isoxazole], in the assay with SB cells, the “% Apoptotic Cells Gated” value came out at 16.05%, the cytotoxicity at 1 µM is 12.3% and the viability at 1 µM came to 64.8%. The compound also gave an IC50 in the assay with MDA-435 of 200 nM.
In the same order, the values of `COc1cc(-c2oncc2-c2ccc(C(C)C)cc2)cc(OC)c1OC` [Compound 45, 4-(4-Isopropyl-phenyl)-5-(3,4,5-trimethoxy-phenyl)-isoxazole] are 17.74%, 15.4%, 62% and 219 nM.
Take `CCc1ccc(-c2cnoc2-c2cc(OC)c(OC)c(OC)c2)cc1` [Compound 47, 4-(4-Ethyl-phenyl)-5-(3,4,5-trimethoxy-phenyl)-isoxazole]: in the assay on SB cells, the “% Apoptotic Cells Gated” value was 13.83%, the cytotoxicity at 1 µM worked out at 14.8% and the viability at 1 µM was 61.9%. For the same compound, half-maximal inhibition in the assay with MDA-435 (IC50) required 47 nM.
Take `COc1ccc(-c2oncc2-c2ccc3c(c2)OCCO3)cc1OC` [Compound 161, 4-(2,3-Dihydro-benzo[1,4]dioxin-6-yl)-5-(3,4-dimethoxy-phenyl)isoxazole]: in the assay with SB cells, the “% Apoptotic Cells Gated” value came to 14.61%, the cytotoxicity at 1 µM is 10.5% and the viability at 1 µM came to 66.8%. This compound also showed an IC50 in the assay on MDA-435 of 591 nM.
For `CCc1cc(-c2oncc2-c2ccc(C)c(C)c2)c(O)cc1OC` [Compound 162, 4-(3,4-Dimethy-phenyl)-5-(2-hydroxy-4-methoxy-5-ethyl-phenyl)-isoxazole], in the assay on SB cells, the “% Apoptotic Cells Gated” value was found to be 17.74%, the cytotoxicity at 1 µM is 11.5% and the viability at 1 µM was determined as 64.6%. The same compound had a 50% inhibitory concentration (IC50) in the assay with MDA-435 of 842 nM.
Take `COc1cc(-c2cnoc2-c2ccc(Br)cc2)cc(OC)c1OC` [Compound 168, 4-(3,4,5-Trimethoxy-phenyl)-5-(4-bromo-phenyl)-isoxazole]: in the assay on SB cells, the “% Apoptotic Cells Gated” value was 15.49%, the cytotoxicity at 1 µM turned out to be 14.4% and the viability at 1 µM is 60.4%. Further, the concentration for half-maximal inhibition (IC50) with MDA-435 is > 1000 nM.
Regarding `COc1ccc(-c2cnoc2-c2cc(OC)c(OC)c(OC)c2)cc1NC(=O)C(N)CO` (stereo not drawn) [Compound 170, 2-amino-3-hydroxy-N-(2-methoxy-5-[5-(3,4,5-trimethoxy-phenyl)-isoxazol-4-yl)-phenyl)propanamide hydrochloride], the IC50 in the assay on MES-SA (uterine sarcoma) (setting [3]) stood at 9 nM; in assay [1] (Homo sapiens, MDR1, 72 h), 3 nM; with HL-60 (T-cell leukemia) (setting [4]), 2 nM.
Regarding `COc1ccc(-c2cnoc2-c2cc(OC)c(OC)c(OC)c2)cc1NC(=O)C(C)N` (stereo not drawn) [Compound 171, 2-amino-N-(2-methoxy-5-[5-(3,4,5-trimethoxy-phenyl)-isoxazol-4-yl)-phenyl)propanamide], the IC50 in the assay with MES-SA (uterine sarcoma) (72 hours) amounted to 2 nM; in assay [1] (72 hours), 4 nM; in the assay with HL-60 (T-cell leukemia) (HL60 (Leukemia), 72 hours), 5 nM.
Regarding `COc1ccc(-c2cnoc2-c2cc(OC)c(OC)c(OC)c2)cc1NC(=O)C(N)CCSC` (stereo not drawn) [Compound 172, 2-amino-N-(2-methoxy-5-(5-(3,4,5-trimethoxyphenyl)isoxazol-4-yl)phenyl)-4-(methylthio)butanamide Hydrochloride], the half-inhibitory concentration (IC50) with MES-SA (uterine sarcoma) (setting [3]) was 0.1 nM; in assay [1] (Homo sapiens, MDR1, 72 h), 0.1 nM; with HL-60 (T-cell leukemia) (setting [4]), 5 nM.
Turning to `CCC(N)C(=O)Nc1cc(-c2cnoc2-c2cc(OC)c(OC)c(OC)c2)ccc1OC` (stereo not drawn) [Compound 173, 2-amino-N-(2-methoxy-5-(5-(3,4,5-trimethoxyphenyl)isoxazol-4-yl)phenyl)butanamide Hydrochloride], the half-maximal inhibitory concentration (IC50) came out at 0.1 nM with MES-SA (uterine sarcoma) (setting [3]); 0.1 nM in assay [1] (Homo sapiens, MDR1, 72 h); 2 nM with HL-60 (T-cell leukemia) (setting [4]).
On to `COc1ccc(-c2cnoc2-c2cc(OC)c(OC)c(OC)c2)cc1NC(=O)C(N)CC(C)C` (stereo not drawn) [Compound 175, 2-amino-N-(2-methoxy-5-(5-(3,4,5-trimethoxyphenyl)isoxazol-4-yl)phenyl)-4-methylpentanamide Hydrochloride], for which the concentration for half-maximal inhibition (IC50) came to 0.1 nM in the assay on MES-SA (uterine sarcoma) (setting [3]); 0.1 nM in assay [1] (Homo sapiens, MDR1, 72 h); 5 nM in the assay with HL-60 (T-cell leukemia) (setting [4]).
In the case of `COc1ccc(CC(N)C(=O)Nc2cc(-c3cnoc3-c3cc(OC)c(OC)c(OC)c3)ccc2OC)cc1` (stereo not drawn) [Compound 176, 2-amino-N-(2-methoxy-5-(5-(3,4,5-trimethoxyphenyl)isoxazol-4-yl)phenyl)-3-(4-methoxyphenyl)propanamide], the IC50 with MES-SA (uterine sarcoma) (Homo sapiens, MES-SA, 72 h) was 0.1 nM; in assay [1] (Homo sapiens, MDR1, 72 h), 0.1 nM; in the assay with HL-60 (T-cell leukemia) (setting [5]) it was 64 nM.
For `COc1ccc(-c2cnoc2-c2cc(OC)c(OC)c(OC)c2)cc1OP(=O)(O)O` [Compound 177, 2-methoxy-5-[5-(3,4,5-trimethoxy-phenyl)-isoxazol-4-yl)-phenyl dihydrogen phosphate], the IC50 in the assay with MES-SA (uterine sarcoma) (Homo sapiens, MES-SA, 72 h) stood at 8 nM; in assay [1] (Homo sapiens, MDR1, 72 h), 4 nM; in the assay with HL-60 (T-cell leukemia) (HL60 (Leukemia), 72 hours), 52 nM.
Turning to `COc1ccc(-c2cnoc2-c2cc(OC)c(OC)c(OC)c2)cc1NC(=O)C(C)N` (stereo not drawn) [Compound 204, 2-amino-N-(2-methoxy-5-(5-(3,4,5-trimethoxyphenyl)isoxazol-4-yl)phenyl)propanamide Hydrochloride], the 50% inhibitory concentration (IC50) with MES-SA (uterine sarcoma) (72 hours, Hydrochloride) came to 106 nM; in assay [1] (72 hours, Hydrochloride), 120 nM; in the assay with HL-60 (T-cell leukemia) (HL60 (Leukemia), 72 hours, Hydrochloride), 500 nM.
For `COC(=O)CNCC(=O)Nc1cc(-c2cnoc2-c2cc(OC)c(OC)c(OC)c2)ccc1OC` [Compound 241, methyl 2-(2-(2-methoxy-5-(5-(3,4,5-trimethoxyphenyl)isoxazol-4-yl)phenylamino)-2-oxoethylamino)acetate], the IC50 was found to be 136 nM in the assay with MES-SA (uterine sarcoma) (setting [3]); 63 nM in assay [1] (Homo sapiens, MDR1, 72 h); 600 nM in the assay with HL-60 (T-cell leukemia) (setting [4]).
With `COc1ccc(-c2cnoc2-c2cc(OC)c(OC)c(OC)c2)cc1NC(=O)CCN` [Compound 243, 3-amino-N-(2-methoxy-5-(5-(3,4,5-trimethoxyphenyl)isoxazol-4-yl)phenyl)propanamide Hydrochloride], the half-maximal inhibitory concentration (IC50) was 50 nM in the assay with MES-SA (uterine sarcoma) (Homo sapiens, MES-SA, 72 h); 38 nM in assay [1] (Homo sapiens, MDR1, 72 h); 63 nM in the assay with HL-60 (T-cell leukemia) (setting [5]).
Consider `COc1cc2c(c(OC)c1OC)-c1ccc(OC)c(=O)cc1[C@@H](NC(C)=O)CC2` [colchicine], for which the microtubule structure entry in assay [2] (24 hr) is recorded as “disorganized but clear microtubule structures were found”; in assay [2] (48 hr), “microtubule structures were still found”.
As for `CC[C@]1(O)C[C@H]2CN(CCc3c([nH]c4ccccc34)[C@@](C(=O)OC)(c3cc4c(cc3OC)N(C=O)[C@H]3[C@@](O)(C(=O)OC)[C@H](OC(C)=O)[C@]5(CC)C=CCN6CC[C@]43[C@@H]65)C2)C1` [vincristine, Vincristine], the microtubule structure result is recorded as “disorganized but clear microtubule structures were found” in assay [2] (24 hr) and “microtubule structures were still found” in assay [2] (48 hr).

One may read the IC50 as the concentration that inhibits the measured activity by half.
